# According to patent US20110152228A1, “SPRAYABLE PHARMACEUTICAL COMPOSITIONS COMPRISING A CORTICOID AND AN OILY PHASE” (Galderma, S.A., priority 2005, published 2011):
# What was measured:
# [1] = Maximum solubility of clobetasol propionate in solvent oils, assessed visually (clarity/cloudiness); type: physicochemical
# Protocol: (§1) The maximum solubility of clobetasol propionate was studied in various solvent oils according to the invention, in order to allow the choice most suitable for the concentration of active agent to be solubilized.
# The solubility can also be assessed visually. Thus, minute proportions of the active agent are gradually added to the solvent oil with stirring. Visual observation of the clarity of the solution is carried out.
# [2] = Maximum solubility of clobetasol propionate in solvent oils, UV assaying method; type: physicochemical
# Protocol: as §1
# It is measured by the UV assaying method.
# Saturated solutions are prepared according to the following protocol:
# 0.1% of clobetasol propionate is added to the oily excipient.
# The entire mixture is stirred overnight and then left for two hours without stirring.
# The solutions for UV-assaying are then prepared by taking the supernatant 0.1 g of this saturated solution is weighed into a 100 ml volumetric flask and then made up to 100 ml with absolute ethanol. The assaying makes it possible to obtain data for maximum solubility of the active agent in the solvent oil under consideration.
compound,measurement,setting,value
CCC(=O)O[C@]1(C(=O)CCl)[C@@H](C)C[C@H]2[C@@H]3CCC4=CC(=O)C=C[C@]4(C)[C@@]3(F)[C@@H](O)C[C@@]21C [clobetasol propionate],Visual solubility,"[1]; solvent: Caprylic/capric triglycerides, maximum solubility",0.25%
same,Visual solubility,[1]; solvent: Dioctyl ether,insoluble
same,Visual solubility,"[1]; solvent: Isopropyl palmitate, maximum solubility",0.14%
same,Visual solubility,"[1]; solvent: Octyldodecanol, maximum solubility",0.16%
same,UV Solubility at 266 nm,[2]; solvent: Cetearyl isononanoate,0.16%
same,UV Solubility at 266 nm,[2]; solvent: Dioctyl ether,0.12%
same,UV Solubility at 266 nm,[2]; solvent: Ethyl oleate,0.79%
same,UV Solubility at 266 nm,[2]; solvent: Isopropyl palmitate,0.17%
same,UV Solubility at 266 nm,[2]; solvent: Oleic acid,0.45%
same,UV Solubility at 266 nm,[2]; solvent: Oleyl alcohol,0.86%
